Key:
[1] = in vivo; cited from earlier work
[2] = peroral, dogs; cited from earlier work
[3] = cited from earlier work
[4] = in vivo; cited from earlier work; remark: listed apart in the source
[5] = In vitro skin permeation in Franz diffusion cells; type: in vitro ADME, pig
Source text: Quantitative determination of dextromethorphan in the receptor solution samples from the skin permeation studies in Example 3 and from the membrane permeation studies in Example 4 was done by the HPLC method described under Apparatus.
In vitro permeation of dextromethorphan from the solutions 1, 2, 3, 4, 5, 6, 7 and 8 through dermatomed pig skin was investigated in Franz diffusion Cells.
Skin pieces with a thickness of approximately 765 μm were dermatomed from full thickness pig skin and mounted in glass diffusion cells with an available diffusion area of 1.8 cm^2. Pig skin is a fully accepted model for human skin. The solutions were applied separately on the skin surfaces and the dermal sides were all exposed to 12.1 ml receptor solution consisting of a 0.05M phosphate buffer solution of pH 7.4 equilibrated to 37±1° C.
Permeation of dextromethorphan was followed by removing samples periodically and measuring the concentration by the HPLC method according to Example 2. An increase in the permeated amount of dextromethorphan is seen in the following order: Water, isopropyl myristate, propylene glycol, propylene glycol containing 5% azone, water containing 1% hydroxpropyl-b-cyclodextrine, water containing 1% b-cyclodextrine, ethanol and ethyl acetate used as solvents. The maximal observed flux of dextromethorphan is 21 μg/cm^2/h and the range is from approximately 0.5 to 21 μg/cm^2/h.

COc1ccc2c(c1)[C@]13CCCC[C@@H]1[C@H](C2)N(C)CC3 [dextromethorphan, (+)-3-methoxy-17-methyl-9a,13a,14a-morphinan]
half-life [1]: 4 to 6 h | absolute bioavailability [2]: 3.8% | effect on coughing frequency and intensity compared to placebo ([3]; 40 mg perorally, tussometri): significant effect on reducing coughing frequency as well as intensity | antitussive effect upon inhalation ([3]; inhalation of 1-30 mg): has not shown any antitussive effect | safety [4]: safe drug | side-effects compared with codeine and noscapine [4]: fewer side-effects | maximal observed flux through skin ([5]; dermatomed pig skin, solutions 1-8, receptor phosphate buffer pH 7.4, 37°C): 21 μg/cm^2/h | change of flux depending on solvent ([5]; ethanol, ethyl acetate or addition of cyclodextrines as solvent): remarkable increase in the fluxes
